What was measured:
[1] = Displacement of [3H]DTG from sigma 2 receptor in rat liver homogenates in presence of sigma-1 receptor blocker (+)-pentazocine after 120 mins by liquid scintillation counting; assay type: tissue-based
[2] = target: Sigma non-opioid intracellular receptor 1 (Cavia porcellus, UniProt Q60492); experiment: Displacement of [3H](+)-pentazocine from sigma 1 receptor in guinea pig brain homogenates after 90 mins by scintillation counting; assay type: tissue-based
[3] = Selectivity ratio of Ki for sigma 2 receptor in rat liver to Ki for sigma 1 receptor in guinea pig brain
[4] = Selectivity ratio of Ki for sigma 1 receptor in guinea pig brain to Ki for sigma 2 receptor in rat liver

Sigma non-opioid intracellular receptor 1, sequence (Q60492 whole entry): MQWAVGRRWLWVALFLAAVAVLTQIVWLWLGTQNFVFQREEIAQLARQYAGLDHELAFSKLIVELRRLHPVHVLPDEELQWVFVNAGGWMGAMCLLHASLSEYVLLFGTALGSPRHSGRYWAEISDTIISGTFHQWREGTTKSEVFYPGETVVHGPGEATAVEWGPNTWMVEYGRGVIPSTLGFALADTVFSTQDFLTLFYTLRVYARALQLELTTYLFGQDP

Row | SMILES | Ki [1] [nM] | Ki [2] [nM] | Ratio Ki [4] | Ratio Ki [3]
1 | OC12CC3CC(CC(C3)N1Cc1ccc(F)cc1)C2 (racemic) | 826 | 650 | – | 1.3
2 | Fc1ccc(CCN2C3CC4CC(C3)CC2C4)cc1 | 34 | 12.8 | – | 2.7
3 | COc1ccc(CN2C3CC4CC(C3)CC2(O)C4)cc1 (racemic) | 426 | 1240 | 2.9 | –
4 | Fc1cccc(CCN2C3CC4CC(C3)CC2C4)c1 | 40 | 8.3 | – | 4.8
5 | Fc1ccc(CN2C3CC4CC(C3)CC2C4)cc1 | 90 | 12 | – | 7.5
6 | COc1cccc(CN2C3CC4CC(C3)CC2(O)C4)c1 (racemic) | 353 | 1950 | 5.5 | –

Further lines, with some results ahead:

Row | Ki [1] [nM] | Ki [2] [nM] | Ratio Ki [4] | SMILES | Ratio Ki [3]
7 | 54 | 12.4 | – | COc1ccc(CN2C3CC4CC(C3)CC2C4)cc1 | 4.4
8 | 64 | 239 | 3.7 | COc1cccc(CN2C3CC4CC(C3)CC2C4)c1 | –
9 | 201 | 246 | 1.2 | OC12CC3CC(CC(C3)N1CCc1ccc(F)cc1)C2 (racemic) | –
10 | 250 | 234 | – | OC12CC3CC(CC(C3)N1CCc1cccc(F)c1)C2 (racemic) | 1.1
